Laboratory results: ChEMBL document CHEMBL3414492, “Enhancing the cellular anti-proliferation activity of pyridazinones as c-met inhibitors using docking analysis” (Eur J Med Chem, 2015)
Values belong to the compound of their own block, whether it stands above or below them. Active and inactive are the calls of the source. The calls are words filed in the database; no cut-off is given here.

Columns and labels:
EBC-1 = experiment: (§1) Inhibition of cell proliferation of human EBC1 cells at 10 uM after 72 hrs by SRB assay; format: functional
[1] = Inhibition of cell proliferation of human EBC1 cells after 72 hrs by SRB assay; conditions: EBC-1, 72 h
[2] = molecular target: T1, Hepatocyte growth factor receptor (Homo sapiens, UniProt P08581); experiment: Inhibition of c-Met (unknown origin)
[3] = molecular target: T1, Hepatocyte growth factor receptor; experiment: Inhibition of recombinant c-Met (unknown origin) using poly (Glu,Tyr)4:1 substrate incubated for 60 mins by ELISA method
[4] = molecular target: T1, Hepatocyte growth factor receptor; experiment: Inhibition of recombinant c-Met (unknown origin) at 10 uM using poly (Glu,Tyr)4:1 substrate incubated for 60 mins by ELISA method
[5] = as §1; format: functional; conditions: EBC-1, 72 h
[6] = Inhibition of cell proliferation of human EBC1 cells at 1 uM after 72 hrs by SRB assay; conditions: EBC-1, 72 h, read-out: INH
[7] = Inhibition of cell proliferation of human MKN45 cells after 72 hrs by SRB assay; conditions: MKN-45, 72 h
[8] = molecular target: Tyrosine-protein kinase receptor UFO (Homo sapiens, UniProt P30530); experiment: Inhibition of AXL (unknown origin)
[9] = molecular target: Tyrosine-protein kinase receptor TYRO3 (Homo sapiens, UniProt Q06418); experiment: Inhibition of TYRO3 (unknown origin)
[10] = molecular target: T1, Hepatocyte growth factor receptor; experiment: Inhibition of c-Met in human EBC1 cells assessed as reduction in Akt S473 phosphorylation at 11 nM to 100 nM incubated for 2 hrs by Western blot method; format: cell-based
[11] = Selectivity index, ratio of IC50 for human NCI-H661 cells to IC50 for human EBC1 cells; format: functional
NCI-H460 [12] = experiment: Selectivity index, ratio of IC50 for human NCI-H460 cells to IC50 for human EBC1 cells; format: functional
[13] = Inhibition of cell proliferation of human PC3 cells after 72 hrs by SRB assay; format: functional, cell-based; conditions: PC-3, 72 h
A549 [14] = experiment: Selectivity index, ratio of IC50 for human A549 cells to IC50 for human EBC1 cells; format: functional
NCI-H358 [15] = experiment: Selectivity index, ratio of IC50 for human NCI-H358 cells to IC50 for human MKN45 cells; format: functional
A549 [16] = experiment: Selectivity index, ratio of IC50 for human A549 cells to IC50 for human MKN45 cells; format: functional
A549 [17] = experiment: Inhibition of cell proliferation of human A549 cells after 72 hrs by SRB assay; format: functional, cell-based; conditions: A549, 72 h
NCI-H520 = experiment: Inhibition of cell proliferation of human NCI-H520 cells after 72 hrs by SRB assay; format: functional, cell-based; conditions: NCI-H520, 72 h
SNU-16 [18] = experiment: Selectivity index, ratio of IC50 for human SNU16 cells to IC50 for human MKN45 cells; format: functional
MKN-45 [19] = experiment: Selectivity index, ratio of IC50 for human PC3 cells to IC50 for human MKN45 cells; format: functional
Ephrin type-A receptor 2 = Ephrin type-A receptor 2 (Homo sapiens, UniProt P29317); experiment: Inhibition of EPHA2 (unknown origin)
NCI-H358 [20] = experiment: Selectivity index, ratio of IC50 for human NCI-H358 cells to IC50 for human EBC1 cells; format: functional
[21] = molecular target: Insulin-like growth factor 1 receptor (Homo sapiens, UniProt P08069); experiment: Inhibition of IGF1R (unknown origin)
[22] = molecular target: Epidermal growth factor receptor (Homo sapiens, UniProt P00533, L858R/T790M); experiment: Inhibition of EGFR T790M/L858R mutant (unknown origin); format: protein assay
NCI-H460 [23] = experiment: Selectivity index, ratio of IC50 for human NCI-H460 cells to IC50 for human MKN45 cells; format: functional
[24] = molecular target: Fibroblast growth factor receptor 1 (Homo sapiens, UniProt P11362); experiment: Inhibition of FGFR1 (unknown origin)
[25] = molecular target: Receptor tyrosine-protein kinase erbB-4 (Homo sapiens, UniProt Q15303); experiment: Inhibition of ERBB4 (unknown origin)
[26] = molecular target: Vascular endothelial growth factor receptor 1 (Homo sapiens, UniProt P17948); experiment: Inhibition of FLT1 (unknown origin)
[27] = Selectivity index, ratio of IC50 for human PC3 cells to IC50 for human EBC1 cells; format: functional
SNU-5 [28] = experiment: Selectivity index, ratio of IC50 for human NCI-H661 cells to IC50 for human SNU5 cells; format: functional
NCI-H358 [29] = experiment: Selectivity index, ratio of IC50 for human NCI-H358 cells to IC50 for human SNU5 cells; format: functional
NCI-H460 [30] = experiment: Selectivity index, ratio of IC50 for human NCI-H460 cells to IC50 for human SNU5 cells; format: functional
[31] = molecular target: Macrophage-stimulating protein receptor (Homo sapiens, UniProt Q04912); experiment: Inhibition of RON (unknown origin)
SNU-16 [32] = experiment: Selectivity index, ratio of IC50 for human SNU16 cells to IC50 for human EBC1 cells; format: functional
NCI-H460 [33] = experiment: Inhibition of cell proliferation of human NCI-H460 cells after 72 hrs by SRB assay; format: functional, cell-based; conditions: NCI-H460, 72 h
[34] = Inhibition of cell proliferation of human SNU5 cells after 72 hrs by SRB assay; conditions: SNU-5, 72 h
[35] = molecular target: ALK tyrosine kinase receptor (Homo sapiens, UniProt Q9UM73); experiment: Inhibition of ALK (unknown origin)
SNU-5 [36] = experiment: Selectivity index, ratio of IC50 for human NCI-H520 cells to IC50 for human SNU5 cells; format: functional
[37] = molecular target: Platelet-derived growth factor receptor beta (Homo sapiens, UniProt P09619); experiment: Inhibition of PDGFRbeta (unknown origin)
[38] = molecular target: Epidermal growth factor receptor (Homo sapiens, UniProt P00533); experiment: Inhibition of EGFR (unknown origin)
[39] = Inhibition of cell proliferation of human SNU16 cells after 72 hrs by SRB assay; format: functional, cell-based; conditions: SNU-16, 72 h
MKN-45 [40] = experiment: Selectivity index, ratio of IC50 for human NCI-H661 cells to IC50 for human MKN45 cells; format: functional
[41] = molecular target: T1, Hepatocyte growth factor receptor; experiment: Inhibition of c-Met Y1234/1235 phosphorylation in human EBC1 cells at 11 nM to 100 nM incubated for 2 hrs by Western blot method; format: cell-based
NCI-H358 [42] = experiment: Inhibition of cell proliferation of human NCI-H358 cells after 72 hrs by SRB assay; format: functional, cell-based; conditions: NCI-H358, 72 h
NCI-H661 = experiment: Inhibition of cell proliferation of human NCI-H661 cells after 72 hrs by SRB assay; conditions: NCI-H661, 72 h
[43] = Selectivity index, ratio of IC50 for human NCI-H520 cells to IC50 for human EBC1 cells; format: functional
MKN-45 [44] = experiment: Selectivity index, ratio of IC50 for human NCI-H520 cells to IC50 for human MKN45 cells; format: functional
A549 [45] = experiment: Selectivity index, ratio of IC50 for human A549 cells to IC50 for human SNU5 cells; format: functional
[46] = molecular target: T1, Hepatocyte growth factor receptor; experiment: Inhibition of c-Met in human EBC1 cells assessed as reduction in ERK T202/Y204 phosphorylation at 11 nM to 100 nM incubated for 2 hrs by Western blot method; format: cell-based
[47] = molecular target: T1, Hepatocyte growth factor receptor; experiment: Inhibition of c-Met Y1234/1235 phosphorylation in human EBC1 cells at 0.1 uM incubated for 2 hrs by Western blot method; format: cell-based
SNU-5 [48] = experiment: Selectivity index, ratio of IC50 for human PC3 cells to IC50 for human SNU5 cells; format: functional
SNU-16 [49] = experiment: Selectivity index, ratio of IC50 for human SNU16 cells to IC50 for human SNU5 cells; format: functional

SMILES: CN(C)CCCCOC(=O)Nc1cccc(Cn2nc(Nc3ccc(F)cc3)ccc2=O)c1
inhibition (EBC-1): inactive

SMILES: CN(C)CCOCCOC(=O)Nc1cccc(Cn2nc(-n3ccc4ccc(F)cc43)ccc2=O)c1
IC50 [1]: ≤ 1 µM

SMILES: CN(C)CCCCOC(=O)Nc1cccc(Cn2nc(-n3ccc4ccc(F)cc43)ccc2=O)c1
IC50 [1]: ≤ 1 µM

SMILES: Cc1cccc(Nc2ccc(=O)n(Cc3cccc(NC(=O)OCCCCN(C)C)c3)n2)c1
inhibition (EBC-1): inactive

SMILES: Cc1ccccc1Nc1ccc(=O)n(Cc2cccc(NC(=O)OCCCCN(C)C)c2)n1
inhibition (EBC-1): inactive

IC50 [2]: 10 µM
SMILES: Nc1ccc(Cn2nc(Nc3ccccc3)ccc2=O)cc1

SMILES: CN(C)CCCCOC(=O)Nc1cccc(Cn2nc(Nc3cccc(C(F)(F)F)c3)ccc2=O)c1
inhibition (EBC-1): inactive

SMILES: O=c1ccc(-n2ccc3ccc(F)cc32)nn1Cc1cccc(-c2ncc(OCCN3CCOCC3)cn2)c1
IC50 [1]: 0.124 µM

IC50 [3]: > 10 µM
SMILES: Cc1ccccc1Nc1ccc(=O)n(Cc2ccc(NC(=O)OCCCCN(C)C)cc2)n1

SMILES: CN1CCN(CCCOc2cnc(-c3cccc(Cn4nc(-n5ccc6ccc(F)cc65)ccc4=O)c3)nc2)CC1
IC50 [1]: 0.198 µM

inhibition [4]: 63.4%
SMILES: CN(C)CCCCOC(=O)Nc1cccc(Cn2nc(Nc3ccccc3C(F)(F)F)ccc2=O)c1
inhibition (EBC-1): inactive

SMILES: CN1CCN(CCOc2cnc(-c3cccc(Cn4nc(-n5ccc6ccc(F)cc65)ccc4=O)c3)nc2)CC1
IC50 [1]: 0.13 µM

SMILES: CN(C)CCOC(=O)Nc1cccc(Cn2nc(-n3ccc4ccc(F)cc43)ccc2=O)c1
IC50 [1]: ≤ 1 µM

IC50 [3]: > 10 µM
SMILES: CCOC(=O)Nc1cccc(Cn2nc(-n3ccc4ccc(F)cc43)ccc2=O)c1

SMILES: CN(C)CCCCOC(=O)Nc1cccc(Cn2nc(Nc3ccccc3F)ccc2=O)c1
inhibition (EBC-1): inactive

SMILES: CN(C)CCCCOC(=O)Nc1cccc(Cn2nc(-n3ccc4ccccc43)ccc2=O)c1
inhibition at 10 µM [5]: > 70%
inhibition at 1 µM [6]: < 50%

IC50 [8]: > 1 µM
IC50 [9]: > 1 µM
inhibition [10]: Active
IC50 (A549 [17]): > 10 µM
IC50 (NCI-H520): > 10 µM
IC50 (Ephrin type-A receptor 2): > 1 µM
IC50 [21]: > 1 µM
IC50 [22]: > 1 µM
IC50 [24]: > 1 µM
IC50 [25]: > 1 µM
IC50 [26]: > 1 µM
IC50 [31]: > 1 µM
IC50 (NCI-H460 [33]): > 10 µM
IC50 [3]: 0.0042 µM
IC50 [35]: > 1 µM
IC50 [37]: > 1 µM
IC50 [38]: > 1 µM
inhibition [41]: Dose-dependent effect
IC50 (NCI-H358 [42]): > 10 µM
IC50 (NCI-H661): > 10000 µM
inhibition [46]: Active
inhibition [47]: Active
SMILES: O=c1ccc(-n2ccc3ccc(F)cc32)nn1CCOc1ccnc2cc(OCCCN3CCOCC3)ccc12
IC50 [7]: 60.7 µM
Ratio IC50 [11]: 100
Ratio IC50 (NCI-H460 [12]): 100
IC50 [13]: > 10 µM
Ratio IC50 (A549 [14]): 100
Ratio IC50 (NCI-H358 [15]): 100
IC50 [1]: 0.0172 µM
Ratio IC50 (A549 [16]): 100
Ratio IC50 (SNU-16 [18]): > 100
Ratio IC50 (MKN-45 [19]): > 100
Ratio IC50 (NCI-H358 [20]): 100
Ratio IC50 (NCI-H460 [23]): 100
Ratio IC50 [27]: 100
Ratio IC50 (SNU-5 [28]): 100
Ratio IC50 (NCI-H358 [29]): 100
Ratio IC50 (NCI-H460 [30]): 100
Ratio IC50 (SNU-16 [32]): > 100
IC50 [34]: 88.1 µM
Ratio IC50 (SNU-5 [36]): 100
IC50 [39]: > 10 µM
Ratio IC50 (MKN-45 [40]): 100
Ratio IC50 [43]: 100
Ratio IC50 (MKN-45 [44]): 100
Ratio IC50 (A549 [45]): 100
Ratio IC50 (SNU-5 [48]): > 100
Ratio IC50 (SNU-16 [49]): > 100
